Measured values from paper PMC8377444 (Pharmacology Research & Perspectives, 2021).

What was measured:
[1] = Safety and tolerability assessments, whole study; type: in vivo, human
[2] = Safety under fed conditions; type: in vivo, human; conditions: single dose 25 mg
[3] = tested on: TLR7/8; conditions: in vitro and ex vivo; cited from earlier work
[4] = Plasma pharmacokinetics, single 25 mg dose fed / food effect; type: in vivo, human; conditions: high-fat, high-calorie meal
[5] = tested on: TLR7/8; experiment: Ex vivo R848-stimulated whole blood cytokine release immunoassay, IL-6 secretion; type: in vivo, human
[6] = Treatment-emergent adverse events, single ascending dose; type: in vivo, human
[7] = tested on: mouse models of SLE; conditions: cited from earlier work

N#Cc1ccc(N2C[C@H](N)C[C@H](C(F)(F)F)C2)c2cccnc12 [enpatoran]
Dose dependence of TEAEs ([1]; Parts A and B): No dose‐dependent TEAEs were observed
Severity of TEAEs ([1]; Parts A and B, all TEAEs): mild to moderate
Tolerability ([1]; single and multiple oral doses up to 200 mg, fasting or fed): well tolerated
Deaths ([1]; whole study): no deaths
Discontinuations due to TEAEs ([1]; whole study): no discontinuations due to TEAEs
Serious AEs ([1]; whole study): No serious AEs occurred
Changes in laboratory values, vital signs or ECGs ([1]; whole study period): No clinically relevant changes
TEAEs reported during Part C [2]: no TEAEs were reported
Activation of TLR7/8 [3]: inhibit the activation of TLR7/8
Decrease in CL/F, fed versus fasting [4]: approximately 25%
Inhibition of IL-6 secretion maintained throughout the dosing interval ([5]; 200 mg QD, 25 mg BID and 50 mg BID): At least 60%
Dose with maximum inhibition of ex vivo-stimulated IL-6 secretion ([5]; doses up to 200 mg): 200 mg
Time of peak TLR7/8 target modulation ([5]; post-dose): 2 h
Study intervention-related flatulence ([6]; SAD cohorts): three
TEAE: Flatulence ([6]; single dose 3 mg, n = 6): 4 (66.7) Number (%) of participants
Disease activity in mouse models of SLE [7]: suppress disease activity
Sustained inhibition of IL-6 ([7]; lowest efficacious dose in mouse models of SLE): 60%
